Measurements reported in ChEMBL document CHEMBL1201862, “PubChem BioAssay data set” (2004).
Where “and” joins values, the source holds several entries; their conditions need not be identical. Equal values may be shown once.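 Values below derive from 48-hour exposures of cells grown in 96-well plates, with endpoints linearly interpolated between the two concentrations bracketing the appropriate inhibition level. GI50 marks 50% less growth.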 Calls of active or inactive are those of the source. Cut-off read from the data, not from the text of the source: active = GI50 up to about 1.1 µM and inactive = higher.

Tests used:
Assay in all cases: inhibition of tumour cell growth, NCI panel, 48 h
[1] = test system: M14
[2] = test system: SW-620
[3] = test system: IGROV-1
[4] = test system: K562
[5] = test system: SF-539
[6] = test system: MDA-MB-435
[7] = test system: HCC 2998
[8] = test system: HOP-62
[9] = test system: SK-OV-3
[10] = test system: HT-29
[11] = test system: OVCAR-3
[12] = test system: KM12
[13] = test system: NCI/ADR-RES
[14] = test system: MOLT-4
[15] = test system: UO-31
[16] = test system: A549
[17] = test system: NCI-H23
[18] = test system: SK-MEL-5
[19] = test system: CCRF-CEM
[20] = test system: UACC-257
[21] = test system: SK-MEL-2
[22] = test system: NCI-H460
[23] = test system: LOX IMVI
[24] = test system: NCI-H522
[25] = test system: U-251
[26] = test system: MCF7
[27] = test system: RPMI-8226
[28] = test system: A498
[29] = test system: HCT-15
[30] = test system: OVCAR-4
[31] = test system: CAKI-1
[32] = test system: 786-0
[33] = test system: HL-60
[34] = test system: DU-145
[35] = test system: UACC-62
[36] = test system: Hs-578T
[37] = test system: EKVX
[38] = test system: PC-3
[39] = test system: ACHN
[40] = test system: SF-295
[41] = test system: SR
[42] = test system: Malme-3M
[43] = test system: COLO 205
[44] = test system: SF-268
[45] = test system: BT-549
[46] = test system: HCT-116
[47] = test system: MDA-N
[48] = test system: OVCAR-5
[49] = test system: OVCAR-8
[50] = test system: SK-MEL-28
[51] = test system: SNB-19
[52] = test system: NCI-H226
[53] = test system: RXF 393
[54] = test system: TK-10
[55] = test system: SNB-75
[56] = test system: T47D
[57] = test system: SN12C
[58] = test system: MDA-MB-231
[59] = test system: HOP-92

Structure (SMILES): CCN(CC)c1ccc2cc(-c3nnc(-c4ccccc4)[nH]3)c(=O)oc2c1
- GI50 [1]: > 100 µM (inactive)
- GI50 [2]: 33.7 µM (inactive)
- GI50 [3]: 17.7 µM (inactive)
- GI50 [4]: > 100 µM (inactive)
- GI50 [5]: 13.8 µM (inactive)
- GI50 [6]: 41.9 µM (inactive)
- GI50 [7]: > 100 µM (inactive)
- GI50 [8]: 7.28 µM (inactive)
- GI50 [9]: 19.8 µM (inactive)
- GI50 [10]: 33 µM (inactive)
- GI50 [11]: 40.5 µM (inactive)
- GI50 [12]: 40 µM (inactive)
- GI50 [13]: 21.7 µM (inactive)
- GI50 [14]: > 100 µM (inactive)
- GI50 [15]: 4.39 µM (inactive)
- GI50 [16]: 68.5 µM (inactive)
- GI50 [17]: 6.49 µM (inactive)
- GI50 [18]: > 100 µM (inactive)
- GI50 [19]: 39.7 µM (inactive)
- GI50 [20]: > 100 µM (inactive)
- GI50 [21]: 33 µM (inactive)
- GI50 [22]: 82 µM (inactive)
- GI50 [23]: 94.4 µM (inactive)
- GI50 [24]: 18.7 µM (inactive)
- GI50 [25]: 15 µM (inactive)
- GI50 [26]: > 100 µM (inactive)
- GI50 [27]: 54.2 µM (inactive)
- GI50 [28]: 22.9 µM (inactive)
- GI50 [29]: > 100 µM
- GI50 [30]: 7.36 µM (inactive)
- GI50 [31]: 26.9 µM (inactive)
- GI50 [32]: 14.3 µM (inactive)
- GI50 [33]: > 100 µM (inactive)
- GI50 [34]: 14.8 µM (inactive)
- GI50 [35]: > 100 µM (inactive)
- GI50 [36]: 39.9 µM (inactive)
- GI50 [37]: 22.8 µM (inactive)
- GI50 [38]: 14.9 µM (inactive)
- GI50 [39]: 36.7 µM (inactive)
- GI50 [40]: 24.5 µM (inactive)
- GI50 [41]: 70.5 µM (inactive)
- GI50 [42]: 83 µM (inactive)
- GI50 [43]: > 100 µM (inactive)
- GI50 [44]: 62.8 µM (inactive)
- GI50 [45]: 25.2 µM (inactive)
- GI50 [46]: 35.8 µM (inactive)
- GI50 [47]: > 100 µM (inactive)
- GI50 [48]: 28.2 µM (inactive)
- GI50 [49]: 3.78 µM (inactive)
- GI50 [50]: > 100 µM (inactive)
- GI50 [51]: 12.2 µM (inactive)

Structure (SMILES): CC(=O)c1c(-c2ccc(Cl)cc2)c(C#N)c(=S)n(C2OC(CO)C(O)C(O)C2O)c1-c1ccccc1 (stereo not drawn)
- GI50 [52]: 61.4 µM (inactive)
- GI50 [1]: > 100 µM (inactive)
- GI50 [53]: 83.4 µM (inactive) and 75.5 µM (inactive)
- GI50 [2]: 59.6 µM (inactive)
- GI50 [3]: 62.8 µM (inactive)
- GI50 [54]: > 100 µM (inactive)
- GI50 [6]: 77.6 µM (inactive)
- GI50 [7]: > 100 µM (inactive) and > 83.8 µM (inactive)
- GI50 [9]: > 100 µM (inactive)
- GI50 [10]: > 100 µM (inactive) and 52.1 µM (inactive)
- GI50 [11]: > 80.4 µM (inactive) and 64.9 µM (inactive)
- GI50 [55]: 14.7 µM (inactive)
- GI50 [12]: > 100 µM (inactive) and > 68.9 µM (inactive)
- GI50 [13]: > 100 µM (inactive) and 98.9 µM (inactive)
- GI50 [17]: > 100 µM (inactive)
- GI50 [20]: > 100 µM (inactive)
- GI50 [24]: > 100 µM (inactive) and 53.8 µM (inactive)
- GI50 [26]: > 100 µM (inactive) and > 71 µM (inactive)
- GI50 [27]: 31.9 µM (inactive)
- GI50 [31]: 45.2 µM (inactive) and > 89.1 µM (inactive)
- GI50 [34]: > 100 µM (inactive) and > 93.3 µM (inactive)
- GI50 [36]: > 100 µM (inactive)
- GI50 [56]: > 82.6 µM (inactive)
- GI50 [39]: 55.2 µM (inactive) and 45.5 µM (inactive)
- GI50 [40]: > 100 µM (inactive) and 70.6 µM (inactive)
- GI50 [42]: > 100 µM (inactive)
- GI50 [57]: > 100 µM (inactive) and > 85.7 µM (inactive)
- GI50 [44]: 89.3 µM (inactive) and 61.5 µM (inactive)
- GI50 [45]: > 100 µM (inactive)
- GI50 [47]: 80.7 µM (inactive) and 48.2 µM (inactive)
- GI50 [49]: > 100 µM (inactive) and > 57.3 µM (inactive)
- GI50 [50]: 82.2 µM (inactive)

Structure (SMILES): COc1cc(/C=C2\CCC/C(=C\c3ccc(OC(=O)CCCCC4CCSS4)c(OC)c3)C2=O)ccc1OC(=O)CCCCC1CCSS1 (stereo not drawn)
- GI50 [52]: > 100 µM (inactive)
- GI50 [1]: > 100 µM (inactive)
- GI50 [53]: > 100 µM (inactive)
- GI50 [2]: > 100 µM (inactive)
- GI50 [3]: > 100 µM (inactive)
- GI50 [4]: > 100 µM (inactive)
- GI50 [5]: > 100 µM (inactive)
- GI50 [54]: > 100 µM (inactive)
- GI50 [6]: > 100 µM (inactive)
- GI50 [8]: > 100 µM (inactive)
- GI50 [9]: > 100 µM (inactive)
- GI50 [10]: > 100 µM (inactive)
- GI50 [11]: > 100 µM (inactive)
- GI50 [55]: > 100 µM (inactive)
- GI50 [12]: > 100 µM (inactive)
- GI50 [13]: > 100 µM (inactive)
- GI50 [14]: > 100 µM (inactive)
- GI50 [15]: > 100 µM (inactive)
- GI50 [16]: > 100 µM (inactive)
- GI50 [17]: > 100 µM (inactive)
- GI50 [18]: > 100 µM (inactive)
- GI50 [19]: 91.2 µM (inactive)
- GI50 [20]: > 100 µM (inactive)
- GI50 [21]: > 100 µM (inactive)
- GI50 [22]: > 100 µM (inactive)
- GI50 [23]: > 100 µM (inactive)
- GI50 [24]: > 100 µM (inactive)
- GI50 [25]: > 100 µM (inactive)
- GI50 [26]: > 100 µM (inactive)
- GI50 [27]: > 100 µM (inactive)
- GI50 [28]: > 100 µM (inactive)
- GI50 [58]: > 100 µM (inactive)
- GI50 [29]: > 100 µM
- GI50 [30]: > 100 µM (inactive)
- GI50 [32]: > 100 µM (inactive)
- GI50 [33]: > 100 µM (inactive)
- GI50 [34]: > 100 µM (inactive)
- GI50 [35]: > 100 µM (inactive)
- GI50 [36]: > 100 µM (inactive)
- GI50 [37]: > 100 µM (inactive)
- GI50 [38]: > 100 µM (inactive)
- GI50 [39]: > 100 µM (inactive)
- GI50 [40]: > 100 µM (inactive)
- GI50 [42]: > 100 µM (inactive)
- GI50 [43]: > 100 µM (inactive)
- GI50 [57]: > 100 µM (inactive)
- GI50 [44]: > 100 µM (inactive)
- GI50 [45]: > 100 µM (inactive)
- GI50 [46]: > 100 µM (inactive)
- GI50 [47]: > 100 µM (inactive)
- GI50 [48]: > 100 µM (inactive)
- GI50 [49]: > 100 µM (inactive)
- GI50 [50]: > 100 µM (inactive)
- GI50 [51]: > 100 µM (inactive)

Structure (SMILES): C=CCOC1OC(CS(=O)(=O)O)C(OC(C)=O)C(OC(C)=O)C1OC(C)=O (stereo not drawn)
- GI50 [52]: > 100 µM (inactive)
- GI50 [1]: > 100 µM (inactive)
- GI50 [53]: > 100 µM (inactive)
- GI50 [2]: > 100 µM (inactive)
- GI50 [3]: > 100 µM (inactive)
- GI50 [4]: 38.1 µM (inactive)
- GI50 [54]: > 100 µM (inactive)
- GI50 [6]: > 100 µM (inactive)
- GI50 [7]: > 100 µM (inactive)
- GI50 [8]: > 100 µM (inactive)
- GI50 [9]: > 100 µM (inactive)
- GI50 [10]: > 100 µM (inactive)
- GI50 [11]: > 100 µM (inactive)
- GI50 [55]: > 100 µM (inactive)
- GI50 [12]: > 100 µM (inactive)
- GI50 [13]: > 100 µM (inactive)
- GI50 [14]: > 100 µM (inactive)
- GI50 [15]: > 100 µM (inactive)
- GI50 [17]: > 100 µM (inactive)
- GI50 [18]: > 100 µM (inactive)
- GI50 [19]: > 100 µM (inactive)
- GI50 [20]: > 100 µM (inactive)
- GI50 [21]: > 100 µM (inactive)
- GI50 [22]: > 100 µM (inactive)
- GI50 [23]: > 100 µM (inactive)
- GI50 [25]: > 100 µM (inactive)
- GI50 [26]: > 100 µM (inactive)
- GI50 [27]: > 100 µM (inactive)
- GI50 [28]: > 100 µM (inactive)
- GI50 [29]: > 100 µM
- GI50 [30]: > 100 µM (inactive)
- GI50 [31]: > 100 µM (inactive)
- GI50 [33]: > 100 µM (inactive)
- GI50 [34]: > 100 µM (inactive)
- GI50 [35]: > 100 µM (inactive)
- GI50 [36]: > 100 µM (inactive)
- GI50 [56]: > 100 µM (inactive)
- GI50 [38]: > 100 µM (inactive)
- GI50 [40]: > 100 µM (inactive)
- GI50 [41]: > 100 µM (inactive)
- GI50 [42]: > 100 µM (inactive)
- GI50 [43]: > 100 µM (inactive)
- GI50 [57]: > 100 µM (inactive)
- GI50 [45]: > 100 µM (inactive)
- GI50 [46]: > 100 µM (inactive)
- GI50 [47]: > 100 µM (inactive)
- GI50 [48]: > 100 µM (inactive)
- GI50 [49]: > 100 µM (inactive)
- GI50 [50]: > 100 µM (inactive)
- GI50 [51]: > 100 µM (inactive)
- GI50 [59]: > 100 µM (inactive)
